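Exposure lasted 48 hours, with cells grown in 96-well plates and compounds tested at five concentrations. TGI: concentration producing complete growth inhibition.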 Some results are limits rather than exact numbers.

Test systems include TK-10 renal; MDA-N; CCRF-CEM leukemia; SK-OV-3 ovarian; HT29 colon; NCI-H460 lung; UACC-62 melanoma; A498 renal; K-562 leukemia; SK-MEL-2 melanoma; SNB-75 CNS; PC-3 prostate; KM12 colon; SN12C renal; CAKI-1 renal; HCT-15 colon; OVCAR-5 ovarian.
Test in all cases: growth of human tumour cells (NCI), 48 h

Regarding `CSCCCNC(=O)c1csc([C@@H](CSC)NC(=O)CCNC(=O)[C@@H](NC(=O)OCC(Br)(Br)Br)C(C)O)n1` (some centres undefined), the TGI with TK-10 renal, with MDA-N, in the assay with CCRF-CEM leukemia, with SK-OV-3 ovarian, with HT29 colon and in the assay with NCI-H460 lung was greater than 100 µM each time. Further, the TGI in the assay on UACC-62 melanoma, in the assay with A498 renal, with K-562 leukemia, with SK-MEL-2 melanoma, in the assay on SNB-75 CNS and in the assay with PC-3 prostate was greater than 100 µM each time. Besides, the TGI in the assay on KM12 colon, in the assay on SN12C renal, with CAKI-1 renal, in the assay with HCT-15 colon and in the assay on OVCAR-5 ovarian was greater than 100 µM throughout.

Take `COc1cccc2c1C(=O)c1ccc3cc(CO)cc(O)c3c1C2=O`: the TGI was 8.43 µM in the assay on TK-10 renal; 0.352 µM with MDA-N; 2.02 µM in the assay with CCRF-CEM leukemia; 8.61 µM with SK-OV-3 ovarian; 3.9 µM in the assay on HT29 colon; 1.17 µM with NCI-H460 lung. Also, the TGI with UACC-62 melanoma was 1 µM; with A498 renal it was 9.62 µM; in the assay with K-562 leukemia it was 3.74 µM; in the assay with SK-MEL-2 melanoma it was 2.99 µM; with SNB-75 CNS it was 9.4 µM; in the assay with PC-3 prostate, 1.17 µM. Also, the TGI came to 6.14 µM with KM12 colon; 2.86 µM in the assay with SN12C renal; 7.18 µM in the assay on CAKI-1 renal; 1.17 µM in the assay on HCT-15 colon; 3.92 µM in the assay on OVCAR-5 ovarian.

(Values after PubChem BioAssay (NCI).)
